As a reminder, the melting point is the temperature, or range, at which the solid turns liquid.

The compound `O=c1[nH]ncc(NCCN2CCC(c3noc4cc(F)ccc34)CC2)c1Cl` gave a melting point of 229 to 231 °C.

On to `CCCCNC(=N)c1ccc2[nH]c(=O)[nH]c2c1`, for which the melting point is 168 °C.

The compound `CCCCCCc1cc2c(=O)c(-c3ccc(OC)cc3)coc2cc1O` registered a melting point of 188 °C.

For the compound `Cc1cccc(N)c1CNc1cccn2c(C=O)c(C)nc12`, the melting point was 230 to 234 °C.

As for `O=C1CCCC(=O)C1=C(S)NCc1ccccc1`, the melting point was 47 to 48 °C.

`CC(C)c1ccc(CCC(O)(P(=O)(O)O)P(=O)(O)O)cc1`: the melting point turned out to be 174 °C.

`N#Cc1ccc(Oc2ccccc2)cn1` gave a melting point of 84 to 85 °C.

Take `O=P12CN3CN(C1)S(=O)(=O)N(C3)C2`: the melting point lay in the range of 245 to 246 °C.

With `CCOC(=O)c1cc2ccccc2n1Cc1ccc(Cl)cc1`, the melting point was in the range of 107 to 108 °C.

On to `O=C1NC(=O)C(c2c3n(c4ccccc24)CCC(CO)C3)=C1c1ccccc1Cl` (centres undefined), for which the melting point is 232 to 233 °C.

With `CCOC(=O)c1cn(C2CC2)c2nc(N3CCCC(n4ccnn4)C3)c(F)cc2c1=O` (centres undefined), the melting point was in the range of 205 to 206 °C.

With `Cn1cc(C2=C(c3c4n(c5ccccc35)CC3(CCN(C(=O)OC(C)(C)C)C3)C4)C(=O)NC2=O)c2ccccc21` (centres undefined), the melting point fell in the range of 232 to 235 °C.

The compound `O=C1CCCCN1Cc1ccc(CCn2cnc3cc(-c4ccc(F)cc4)sc3c2=O)cc1` yielded a melting point of 216 to 217 °C.

The compound `NC(=S)Nc1ccccc1-c1ccc(Cl)cc1` gave a melting point of 175 to 177 °C.

Compound `Cn1c(=O)c(C#N)c(N2CCN(C(=O)c3cccs3)CC2)c2cc(Cl)ccc21` came in with a melting point of 262 °C.

Compound `Cc1ccc(C(=O)Cn2c(=NS(=O)(=O)c3ccc(C)cc3)sc3ccccc32)cc1` gave a melting point of 180 to 182 °C.

Take `O=C1Nc2ccc(-c3cccc(Cl)c3)cc2C1=O`: the melting point is 159 to 161 °C.

`CCCCC(Nc1ccncc1)c1ccccc1` (centres undefined) came in with a melting point of 118 °C.

The compound `C#CCn1c(=O)ccc2cc(F)c(-n3c(=O)cc(C(F)(F)F)n(C)c3=O)cc21` had a melting point of 236 to 238 °C.

As for `CC1(C)OCC(CN2C(=O)C3(COc4cc5c(cc43)OCCO5)c3ccccc32)O1` (centres undefined), the melting point lay within 55 to 57 °C.

On to `C=Cc1ccc(NC(=O)C(C)C)nc1`, for which the melting point lay within 77 to 78 °C.

For `CN1CCC2(C)c3cc(O)cc(Cl)c3N(C)C12` (centres undefined), the melting point lay in the range of 152 to 154 °C.

`CCCc1ccc(S(=O)(=O)Nc2ccc3ncccc3c2)cc1` displayed a melting point of 180 to 181 °C.

`Cc1cc(C)nc(Nc2ccc(OC(F)F)cc2)n1` returned a melting point of 81 to 82 °C.

The compound `Cc1c(O)c(=O)ccn1CCCCO` came in with a melting point of 126 to 128 °C.

As to `COc1ccc(CSc2nnc(-c3ccc4[nH]ncc4c3)o2)cc1C(F)(F)F`, the melting point lay within 136 to 137 °C.

`COc1ccc(-c2ccc(CC(=O)O)cc2F)cc1` had a melting point of 140 to 142 °C.

On to `O=C(O)CCc1ccnc(-c2nc(=O)c3ccc(Br)cc3s2)c1`, for which the melting point lay in the range of 258 to 259 °C.

The compound `CC1(C)C(=O)Nc2ccc([N+](=O)[O-])cc21` yielded a melting point of 192 to 196 °C.

`CCCCCCCCOc1cccc2c1OCO2` displayed a melting point of 120 °C.

Consider `O=C(Nc1ccccc1)C1=CCN(Cc2c[nH]c3ncccc23)CC1`, for which the melting point lay in the range of 217 to 220 °C.

`Cc1ccc(S(=O)(=O)OCC2CCc3nc(C)sc3C2)cc1` (centres undefined) yielded a melting point of 70 to 71 °C.

Consider `CC(=O)OC(C)(N=NC(C)(OC(C)=O)C(C)C)C(C)C` (centres undefined), for which the melting point lay in the range of 55 to 62 °C.

Turning to `CNC(=O)NC1OCC(OC(C)=O)C(OC(C)=O)C1OC(C)=O` (centres undefined), the melting point was 170 to 172 °C.

For `CN(Cc1cc2c(=O)c(C(=O)NCc3ccc(Cl)cc3)cn(C)c2o1)CC(CO)c1ccccc1` (centres undefined), the melting point was 141 to 148 °C.

In turn, `CNC(=O)c1cc(-c2ccc(-c3ccco3)cc2)n(-c2ccc(S(C)(=O)=O)c(F)c2)n1` showed a melting point of 196 to 198 °C.

The compound `CC(=O)OCc1ccc(-c2ccccc2-c2nnnn2C(c2ccccc2)(c2ccccc2)c2ccccc2)cc1` yielded a melting point of 117 to 119 °C.

With `O=c1c2cc(F)c(Cl)nc2n(-c2ccc(F)cc2F)c(=O)n1OCc1ccccc1`, the melting point lay within 215 to 216 °C.

`COc1cc(OC)c2c(=O)[nH]c(-c3ccc(OC)c(N4CCN(C(C)C)CC4)n3)nc2c1` had a melting point of 208 to 210 °C.

Turning to `COC(=O)C1CC(C#N)(c2ccc(Cl)cc2)CCC1=O` (centres undefined), the melting point was in the range of 141 to 144 °C.

In turn, `COC(=O)Cc1ccc(-c2cc(O)c3ccccc3c2O)n1C` had a melting point of 200 to 201 °C.

Take `CC(C(=O)NCCCCn1cnc2c(N)nc3ccccc3c21)c1ccc(-c2ccccc2)c(F)c1` (centres undefined): the melting point lay within 76.1 to 79.9 °C.

As for `O=C1N(Cc2ccc(C(F)(F)F)o2)c2ccccc2C12COc1ccc(=O)[nH]c12` (centres undefined), the melting point fell in the range of 175 to 177 °C.

Take `CC(=O)Oc1ccccc1C(=O)Oc1nc[nH]c1C(N)=O`: the melting point fell in the range of 143 to 145 °C.

`O=C(CCl)Nc1ccc2cc3ccc(NC(=O)CCl)cc3nc2c1` gave a melting point of 95 to 100 °C.

The compound `CCCCOc1c(CNC(=O)OC(C)(C)C)n(CC(C)C)c(=O)c2ccc(NC(=O)OCC3c4ccccc4-c4ccccc43)cc12` gave a melting point of 137 to 138 °C.

`CN(CC#CC1=Cc2ccccc2Sc2ccc(Cl)cc21)CCO` returned a melting point of 86 to 88 °C.

`COc1cc(C)ccc1-c1nc(C)c(-c2cccnc2)[nH]1` showed a melting point of 125 to 128 °C.

As for `O=C1CCCCCCCCC=CCCCCCCCCC1O` (centres undefined), the melting point was 66 to 67 °C.

Consider `COc1ccc(-c2cc(F)c(F)cc2-c2ccc(S(C)(=O)=O)cc2)cc1Cl`, for which the melting point came to 148 °C.

`C=CC(=O)N1C(C)(C)CC(OC(=O)CCCC(C)(C)c2cc(OC)c(C(C)(C)CCCC(=O)OC3CC(C)(C)N(C(=O)C=C)C(C)(C)C3)cc2O)CC1(C)C` came in with a melting point of 50 to 52 °C.

`N#Cc1cc(C(=O)c2cccs2)ccc1O` displayed a melting point of 216 °C.

The compound `CN(C)C1(c2ccccc2)CCC(CNC(=O)NCCCc2ccccc2)CC1` (centres undefined) had a melting point of 100 to 110 °C.

`N#CCCc1ccc(C(=O)O)cc1` displayed a melting point of 182 °C.

As to `CCN1CCC(C(=O)O)(S(=O)(=O)c2ccc(OC)cc2)CC1`, the melting point worked out at 209 °C.

`CC(C)c1nc2cc3c(cc2[nH]1)NC(=O)C3(C)C` displayed a melting point of 282 to 284 °C.

`CCc1cc(OCc2ccc(-c3ccccc3-c3nnn(C(c4ccccc4)(c4ccccc4)c4ccccc4)n3)cc2)c2c(n1)COCC2` returned a melting point of 168 to 170 °C.

Consider `CO[C@@H]1C=C2C=C3C(=C(C)C(=O)N3C)C[C@]2(C)[C@@H](C)[C@H]1O`, for which the melting point lay within 165 to 170 °C.

Take `CNC(=O)NCCn1c(-c2ccc(CN3CCOCC3)cc2C)csc1=Nc1ccc(F)c(C)c1`: the melting point lay in the range of 130 to 135 °C.

For the compound `CCC1(CCCCN2CCN(c3ccccc3Cl)CC2)C(=O)Nc2ccccc21` (centres undefined), the melting point fell in the range of 145 to 148 °C.

Take `CCCCCCCCCc1cnc(-c2ccc(OCc3ccc(CCCCCC)cc3)cc2)nc1`: the melting point stood at 51 °C.

For the compound `Clc1ccc(C2c3ccc(Cl)cc3-c3ncncc32)cc1` (centres undefined), the melting point fell in the range of 158 to 163 °C.

Compound `CCCN(CCC)C1Cc2cccc3ccc(=O)n(c23)C1` (centres undefined) yielded a melting point of 82 to 84 °C.

`Cc1ccc(C)c(Sc2ccc(C#N)cc2S(=O)(=O)N2CCOCC2)c1` yielded a melting point of 181 to 184 °C.

In turn, `CC(C)(C)C(=O)Nc1ccc(C(F)(F)F)cc1C=O` came in with a melting point of 69 to 73 °C.

Regarding `CC1(C)CC(=NN)c2ccccc21`, the melting point was in the range of 194 to 197 °C.

`CC(c1ccccc1)N1CCC(CO)C1` (centres undefined) came in with a melting point of 86 to 88 °C.

In turn, `CC1=C(C(=O)Nc2ccc(Cl)c(C(=O)OC(C)C)c2)SCCS1` returned a melting point of 122 to 124 °C.

In turn, `CCOC(=O)C(C(=O)OCC)C(C#N)(c1ccc(F)cc1)c1ccc(F)cc1` showed a melting point of 90 to 91 °C.

For the compound `CCC(c1ccccn1)N(Cc1ccc(C(=O)OC)cc1)S(=O)(=O)c1ccc(F)cc1` (centres undefined), the melting point was 82 to 84 °C.

The compound `Cc1c(C)c(N2CCN(c3ccnn3C)CC2)c(C)c2c1OC(C)(C)C2` displayed a melting point of 126 to 128 °C.

The compound `COC(=O)c1cccc2c1nc(-c1c(F)cccc1F)n2Cc1c(F)cccc1F` registered a melting point of 184 to 186 °C.

The compound `CC(C)OC(=O)c1cc(N)c(F)c(Cl)n1` returned a melting point of 191 to 192 °C.

In turn, `Cc1c(N2CCN(C)C(C)C2)c(F)cc2c(=O)c(C(=O)O)cn(C3CC3)c12` (centres undefined) had a melting point of 181 to 183 °C.

Consider `N#Cc1cnc2cc(F)ccc2c1O`, for which the melting point is more than 250 °C.

Compound `O=C(Cc1ccsc1)N1C(=O)OC[C@@H]1Cc1ccccc1` came in with a melting point of 80 to 81 °C.

`OC1(c2cccc(Cl)c2)C2=NCCCN2c2ccccc21` (centres undefined) came in with a melting point of 186 to 187 °C.

`CCc1nc2c(N)nc3cc(CCC(N)=O)ccc3c2n1CC1CCOCC1` gave a melting point of 197 to 199 °C.

`COc1ccc(C(=O)C(C(=O)Nc2cc(N)ccc2Cl)N2C(=O)c3ccccc3C2=O)cc1` (centres undefined) returned a melting point of 105 to 107 °C.

`CC(C)CCCC(C)NC(=O)Oc1ccc(Oc2ccc(Cl)cc2)cc1` (centres undefined) came in with a melting point of 46 to 48 °C.

In the case of `c1ccc2c(c1)SCCc1c-2n(Cc2ccc(OCCCN3CCCCC3)cc2)c2ccccc12`, the melting point is 70 to 71 °C.

In the case of `CCCC(=O)c1ccc(OCCCCC(=O)O)c(Cl)c1Cl`, the melting point was in the range of 102 to 103 °C.

For `O=C1Nc2ccc(Cl)cc2C1(NCCO)c1ccccc1Cl` (centres undefined), the melting point lay in the range of 198 to 200 °C.

`c1ccc(-c2nn[nH]c2-c2ccccc2)cc1` returned a melting point of 131 °C.

In the case of `CCc1nc(C(=O)c2ccc(Cl)cc2Cl)c(C(C)=O)n1C(CC)CC`, the melting point was in the range of 63 to 64 °C.

Consider `O=c1[nH]cc2n1-c1ccc(Cl)cc1C(c1ccccc1F)=NC2`, for which the melting point is 247 to 250 °C.

`Nc1cc(=O)n(Cc2ccc(Cl)cc2Cl)[nH]1` came in with a melting point of 189 °C.

As for `CC(C)c1ccc(-c2nc(=O)n(Cc3ccccc3)c3ccc(O)cc23)cc1`, the melting point was more than 270 °C.

The compound `O=C1OC(=O)c2cc(N3C(=O)CCC3=O)ccc21` showed a melting point of 228 to 230 °C.

For the origin of these results see a melting point compilation (Tetko et al.; mined from patent text by program, amines drawn as free bases though some values may be those of a salt).
